Reference: patent US12448518B2, “Phthalocyanine dye compounds, conjugates and methods of use thereof” (Rakuten Medical, Inc., priority 2020, dated 2025)

How the values were obtained:
[1] = Singlet oxygen quantum yield, indirect method with chemical quencher (DPBF or ADMA); assay type: physicochemical
Text: Photogeneration quantum yields of singlet oxygen (ΦΔ) were obtained by an indirect method, using either diphenylisobenzofuran (DBPF) or anthracene-9,10-bis-methylmalonate (ADMA) as chemical quenchers in either N,N-dimethylformamide or aqueous media, respectively. Typically, a solution of the phthalocyanine and the quencher was irradiated with a red LED lamp (670 nm) at 5 mW/cm^2. The initial DPBF or ADMA concentrations were kept the same for both the reference and the test samples. The degradation of the DPBF band at 414 nm or ADMA at 401 nm was monitored in a Varian Cary® 50 UV-Vis spectrophotometer, every five seconds in the case of DPBF (up to 30 seconds) and every minute in the case of ADMA (up to five minutes). ZnPc (ΦΔ=0.67) and AlPcSmix (ΦΔ=0.42) were used as references in N,N-dimethylformamide or aqueous media, respectively.
The relative method shown by Eq. (1) was employed for calculations of the ΦΔ:
[formula] where ΦΔ and ΦΔref are the ^1O2 generation quantum yields for the sample and reference, respectively, m and mref are the DPBF or ADMA photobleaching rates in the presence of the phthalocyanine of the invention and the reference, respectively, and I and Iref are the rates of light absorption by the phthalocyanine derivative and reference, respectively. Concentrations of the test compound and reference were chosen such that their respective absorptions at the irradiation wavelength were the same.

BxPC3 cells = test: Cell killing of free dye PIT, CellTox Green Cytotoxicity Assay; assay type: cell-based; settings: BxPC3, 0.00137-1 μg/mL, 690 nm laser 64 J/cm^2, 24 hours after light
Procedure: The PIT killing activity of free dyes were evaluated using the molecules synthesized as Example 12 and Example 13. BxPC3 cells (#CRL-1687, ATCC, Manassas VA) were plated, 5,000 cells per well, in RPMI-1640 media supplemented with 10% FBS and 1% Penicillin/Streptomycin (complete culture media) in a deep-well 96-well plate. Following overnight incubation at 37° C., the culture media were removed and the cells were incubated in 100 μL complete media with 1, 0.333, 0.111, 0.03704, 0.01235, 0.00412, 0.00137, or 0 μg/mL Example 12, Example 13, or IRDye 700DX carboxylate (control) for one hour at 4° C. […]
The effect of different treatment regimens on cell death was measured using the CellTox™ Green Cytotoxicity Assay (Cat No: G8742, Promega, Madison, WI). […] The CellTox™ Green fluorescence signal was measured at 24 hours after light treatment using a fluorescence plate reader. The cells were then lysed with diluted lysis solution (Cat No: G1821, Promega, Madison, WI), incubated at 37° C. for 30 minutes, and the CellTox™ Green fluorescence signal was measured again post-lysis. The percentages of dead cells were calculated by taking the ratio between background (1× CellTox™ Green in complete culture media without cells)-subtracted CellTox™ Green signal per well prior to and post lysis and multiplying the ratio by 100.

[2] = Kinetic (aqueous) solubility in pH 7.4 DPBS, UV quantification; settings: for Solubility* (kinetic): pH 7.4 DPBS, 4 hours, room temperature (25° C.), from 10 mM DMSO stock
[3] = reference in N,N-dimethylformamide; cited from earlier work
[4] = quencher ADMA, aqueous media, 670 nm LED 5 mW/cm^2, reference AlPcSmix

## 3-((6-((λ^5-azaneyl)oxy)-6-oxohexyl)(3-(((λ5-azaneyl)oxy)sulfonyl)propyl)(3-(((19-(((3-(bis(3-(((λ5-azaneyl)oxy)sulfonyl)propyl)(3-sulfonatopropyl)ammonio)propyl)dimethylsilyl)oxy)-19H-6,11-(azeno)-17,21-(azeno[3]episoindoloazeno)benzo[7,8][1,3,5,10]tetraaza[2]silacycloundecino[4,3-a:11,1-a′]diisoindol-19-yl)oxy)dimethylsilyl)propyl)ammonio)propane-1-sulfonate [Example 12]
[1]; [4]
  ΦΔ (singlet oxygen quantum yield): B (>0.5)
BxPC3 cells
  cell death after illumination (free dye): dose-dependent cytotoxicity
[2]
  Solubility* (kinetic): C (>100 μg/mL)

## 4-((6-((λ5-azaneyl)oxy)-6-oxohexyl)(4-(((λ5-azaneyl)oxy)sulfonyl)butyl)(3-(((19-(((3-(bis(4-(((λ5-azaneyl)oxy)sulfonyl)butyl)(4-sulfonatobutyl)ammonio)propyl)dimethylsilyl)oxy)-19H-6,11-(azeno)-17,21-(azeno[3]episoindoloazeno)benzo[7,8][1,3,5,10]tetraaza[2]silacycloundecino[4,3-a:11,1-a′]diisoindol-19-yl)oxy)dimethylsilyl)propyl)ammonio)butane-1-sulfonate [Example 13]
[1]; [4]
  ΦΔ (singlet oxygen quantum yield): B (>0.5)
BxPC3 cells
  cell death after illumination (free dye): dose-dependent cytotoxicity
[2]
  Solubility* (kinetic): C (>100 μg/mL)

## COCCOCCOCC(=O)NCCC[Si](C)(C)O[Si-2]123(O[Si](C)(C)CCCNC(=O)CCCCC(=O)O)n4c5c6ccccc6c4N=C4c6ccccc6C(=[N+]41)N=c1c4ccccc4c(n12)=NC1=[N+]3C(=N5)c2ccccc21 [Example 1, 6-((3-(dimethyl((19-((15-methyl-10-oxo-2,5,8-trioxa-11-aza-15-silahexadecan-15-yl)oxy)-19H-6,11-(azeno)-17,21-(azeno[3]episoindoloazeno)benzo[7,8][1,3,5,10]tetraaza[2]silacycloundecino[4,3-a:11,1-a′]diisoindol-19-yl)oxy)silyl)propyl)amino)-6-oxohexanoic acid]
[1]; quencher DPBF, N,N-dimethylformamide, 670 nm LED 5 mW/cm^2, reference ZnPc
  ΦΔ (singlet oxygen quantum yield): A (≤0.5)

## C[Si](C)(CCCNC(=O)COCC(=O)O)O[Si]1(O[Si](C)(C)CCCNC(=O)NCCS(=O)(=O)O)n2c3c4ccccc4c2N=C2N=C(N=c4c5ccccc5c(n41)=NC1=NC(=N3)c3ccccc31)c1ccccc12.N (centres unmarked) [Example 7, Ammonium 2-(2-((3-(((19-((dimethyl(3-(3-(2-sulfonatoethyl)ureido)propyl)silyl)oxy)-19H-6,11-(azeno)-17,21-(azeno[1]episoindoloazeno)benzo[7,8][1,3,5,10]tetraaza[2]silacycloundecino[4,3-a:11,1-a′]diisoindol-19-yl)oxy)dimethylsilyl)propyl)amino)-2-oxoethoxy)acetate]
[2]
  Solubility* (kinetic): A (≤1 μg/mL)

## C[Si](C)(CCCNC(=O)COCC(=O)O)O[Si]1(O[Si](C)(C)CCCNC(=O)NCC(S(=O)(=O)O)S(=O)(=O)O)n2c3c4ccccc4c2N=C2N=C(N=c4c5ccccc5c(n41)=NC1=NC(=N3)c3ccccc31)c1ccccc12.N (centres unmarked) [Example 8, Ammonium 2-(2-((3-(((19-(((3-(3-(2,2-disulfonatoethyl)ureido)propyl)dimethylsilyl)oxy)-19H-6,11-(azeno)-17,21-(azeno[1]episoindoloazeno)benzo[7,8][1,3,5,10]tetraaza[2]silacycloundecino[4,3-a:11,1-a′]diisoindol-19-yl)oxy)dimethylsilyl)propyl)amino)-2-oxoethoxy)acetate]
[2]
  Solubility* (kinetic): A (≤1 μg/mL)

## C[Si](C)(CCCNC(=O)CCCN(CCCS(=O)(=O)O)CCCS(=O)(=O)O)O[Si]1(O[Si](C)(C)CCCNC(=O)COCC(=O)O)n2c3c4ccccc4c2N=C2N=C(N=c4c5ccccc5c(n41)=NC1=NC(=N3)c3ccccc31)c1ccccc12.N (centres unmarked) [Example 15, Ammonium 2-(2-((3-(((19-(((3-(4-(bis(3-sulfonatopropyl)ammonio)butanamido)propyl)dimethylsilyl)oxy)-19H-6,11-(azeno)-17,21-(azeno[1]episoindoloazeno)benzo[7,8][1,3,5,10]tetraaza[2]silacycloundecino[4,3-a:11,1-a′]diisoindol-19-yl)oxy)dimethylsilyl)propyl)amino)-2-oxoethoxy)acetate]
[2]
  Solubility* (kinetic): B (>1 μg/mL to ≤100 μg/mL)

## C[Si](C)(CCC[N+](CCCCS(=O)(=O)O)(CCCCS(=O)(=O)O)CCCCS(=O)(=O)O)O[Si-2]123(O[Si](C)(C)CCC[N+](CCCCS(=O)(=O)O)(CCCCS(=O)(=O)O)CCOCCOCCOCCC(=O)O)n4c5c6ccccc6c4N=C4c6ccccc6C(=[N+]41)N=c1c4ccccc4c(n12)=NC1=[N+]3C(=N5)c2ccccc21.[Na+].[Na+].[Na+].[Na+] [Example 17, Sodium 2-((19-((dimethyl(3-(tris(4-sulfonatobutyl)ammonio)propyl)silyl)oxy)-19H-6,11-(azeno)-17,21-(azeno[3]episoindoloazeno)benzo[7,8][1,3,5,10]tetraaza[2]silacycloundecino[4,3-a:11,1-a′]diisoindol-19-yl)oxy)-2-methyl-6,6-bis(4-sulfonatobutyl)-9,12,15-trioxa-6-aza-2-silaoctadecan-6-ium-18-oate]
[1]; [4]
  ΦΔ (singlet oxygen quantum yield): B (>0.5)

## C[Si](C)(CCC[N+](CCCCS(=O)(=O)[O-])(CCCCS(=O)(=O)[O-])CCCCS(=O)(=O)[O-])O[Si@@]1(O[Si](C)(C)CCC[N+](CCCCS(=O)(=O)[O-])(CCCCS(=O)(=O)[O-])CCOCCOCCC(=O)[O-])n2c3c4ccccc4c2/N=C2N=C(/N=c4/c5ccccc5/c(n41)=N/C1=NC(=N\3)/c3ccccc31)c1ccccc1\2.[Na+].[Na+].[Na+].[Na+] [Example 18, Sodium 2-((19-((dimethyl(3-(tris(4-sulfonatobutyl)ammonio)propyl)silyl)oxy)-19H-6,11-(azeno)-17,21-(azeno[3]episoindoloazeno)benzo[7,8][1,3,5,10]tetraaza[2]silacycloundecino[4,3-a:11,1-a′]diisoindol-19-yl)oxy)-2-methyl-6,6-bis(4-sulfonatobutyl)-9,12-dioxa-6-aza-2-silapentadecan-6-ium-15-oate]
[1]; [4]
  ΦΔ (singlet oxygen quantum yield): B (>0.5)
[2]
  Solubility* (kinetic): C (>100 μg/mL)

## C[Si](C)(CCC[N+](CCCS(=O)(=O)O)(CCCS(=O)(=O)O)CCCS(=O)(=O)O)O[Si-2]123(O[Si](C)(C)CCC[N+](CCCS(=O)(=O)O)(CCCS(=O)(=O)O)CCOCCOCCOCCC(=O)O)n4c5c6ccccc6c4N=C4c6ccccc6C(=[N+]41)N=c1c4ccccc4c(n12)=NC1=[N+]3C(=N5)c2ccccc21.[Na+].[Na+].[Na+].[Na+] [Example 19, Sodium 2-((19-((dimethyl(3-(tris(3-sulfonatopropyl)ammonio)propyl)silyl)oxy)-19H-6,11-(azeno)-17,21-(azeno[3]episoindoloazeno)benzo[7,8][1,3,5,10]tetraaza[2]silacycloundecino[4,3-a:11,1-a′]diisoindol-19-yl)oxy)-2-methyl-6,6-bis(3-sulfonatopropyl)-9,12,15-trioxa-6-aza-2-silaoctadecan-6-ium-18-oate]
[1]; [4]
  ΦΔ (singlet oxygen quantum yield): B (>0.5)
[2]; 25 °C, pH 7.4, aqueous buffer, kinetic from dmso stock
  solubility kinetic at 4 h: > 100 µg/mL

## [Zn+2].c1ccc2c(c1)-c1nc-2nc2[n-]c(nc3nc([n-]c4nc(n1)-c1ccccc1-4)-c1ccccc1-3)c1ccccc21 [ZnPc]
[3]
  ΦΔ of reference: 0.67

## Ammonium 3-((4-((3-(((19-(((3-(2-(carboxymethoxy)acetamido)propyl)dimethylsilyl)oxy)-19H-6,11-(azeno)-17,21-(azeno[3]episoindoloazeno)benzo[7,8][1,3,5,10]tetraaza[2]silacycloundecino[4,3-a:11,1-a′]diisoindol-19-yl)oxy)dimethylsilyl)propyl)amino)-4-oxobutyl)bis(3-sulfopropyl)ammonio)propane-1-sulfonae [Example 5]
[1]; [4]
  ΦΔ (singlet oxygen quantum yield): B (>0.5)
